# Values quoted from earlier work, collected in patent publication US6077934A (priority 1998, dated 2000).
# Test system: Swiss Webster mice
# Details: mouse, in vivo
substance,measurement,value
GCX1 X2 EPWC [contryphan-R],symptomatology after intracranial injection,"""stiff-tail syndrome"""
